Data published in ChEMBL document CHEMBL4184149, “Discovery and process development of a novel TACE inhibitor for the topical treatment of psoriasis” (Bioorg Med Chem, 2018).
≈ marks a conversion by molar mass, not a printed value. Calls of active or inactive are those of the source. No cut-off for these calls is given here.

Assays:
[1] = target: Disintegrin and metalloproteinase domain-containing protein 17 (Homo sapiens, UniProt P78536); assay: Inhibition of TACE in human PBMC assessed as reduction in LPS-induced TNFalpha production incubated overnight by HTRF assay; type: cell-based
Disintegrin and metalloproteinase domain-containing protein 17, sequence (P78536 whole entry, the tested form may be a part): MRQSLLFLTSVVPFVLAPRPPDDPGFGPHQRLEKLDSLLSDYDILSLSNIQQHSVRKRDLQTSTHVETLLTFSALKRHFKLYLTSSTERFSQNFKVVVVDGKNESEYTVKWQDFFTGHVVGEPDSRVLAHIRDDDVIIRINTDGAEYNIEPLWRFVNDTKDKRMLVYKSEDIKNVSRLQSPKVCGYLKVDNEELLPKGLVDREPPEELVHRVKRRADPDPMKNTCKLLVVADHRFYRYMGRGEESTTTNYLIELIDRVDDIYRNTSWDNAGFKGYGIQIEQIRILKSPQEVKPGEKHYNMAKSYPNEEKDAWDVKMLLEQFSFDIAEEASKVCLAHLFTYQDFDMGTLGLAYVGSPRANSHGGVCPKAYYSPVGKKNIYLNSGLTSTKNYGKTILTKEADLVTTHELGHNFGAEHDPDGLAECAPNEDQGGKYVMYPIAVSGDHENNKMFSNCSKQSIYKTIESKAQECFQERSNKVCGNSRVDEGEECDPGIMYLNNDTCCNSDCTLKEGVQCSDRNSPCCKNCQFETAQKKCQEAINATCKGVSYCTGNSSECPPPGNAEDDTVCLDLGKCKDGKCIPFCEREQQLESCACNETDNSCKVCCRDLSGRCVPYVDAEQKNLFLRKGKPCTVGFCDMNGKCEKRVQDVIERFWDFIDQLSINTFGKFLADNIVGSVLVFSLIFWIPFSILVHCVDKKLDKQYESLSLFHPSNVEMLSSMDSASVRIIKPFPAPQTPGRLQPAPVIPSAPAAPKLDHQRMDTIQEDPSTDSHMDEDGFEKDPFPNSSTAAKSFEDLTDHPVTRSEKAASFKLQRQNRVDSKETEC

[2] = Solubility of the compound in propylene glycol/ethanol96 at 30 mg/ml after 24 hrs by UV-spectrometric analysis; type: physicochemical; conditions: for solubility at 24 h: propylene glycol/ethanol96; for solubility: 24 h
[3] = (§1) Intrinsic clearance in human hepatocytes assessed per million cells at 1 uM by LC-MS/MS analysis; type: ADME, cell-based, Hepatocyte; conditions: human hepatocytes, read-out: CLH
[4] = Half life in human neonatal keratinocytes at 1 uM by LC-MS/MS analysis; type: ADME, cell-based
[5] = Photoirritancy factor, ratio of EC50 for human neonatal keratinocytes under dark condition to EC50 for human neonatal keratinocytes under 5 J/cm2 UV light exposure; type: toxicity; conditions: read-out: Ratio EC50
[6] = Aqueous solubility of the compound in PBS at pH 7.4 at 20 degC after 24 hrs by HPLC analysis; type: physicochemical
[7] = Stability of the compound in propylene glycol/ethanol96 at 0.1 mg/ml measured up to 3 months by HPLC analysis; type: physicochemical; conditions: read-out: Stability
[8] = tested on: TK6; assay: Genotoxicity in p53-competent human TK6 cells in absence of Sprague-Dawley rat S9 fraction by GADD45alpha GFP reporter assay; type: toxicity, cell-based
[9] = tested on: TK6; assay: Genotoxicity in p53-competent human TK6 cells in presence of Sprague-Dawley rat S9 fraction by GADD45alpha GFP reporter assay; type: toxicity, cell-based
[10] = Stability of the compound in propylene glycol/ethanol96 assessed as parent compound remaining at 0.1 mg/ml after 1 month at 40 degC by HPLC analysis; type: physicochemical; conditions: read-out: Stability
[11] = tested on: Mus musculus; assay: Antiinflammatory activity in topically applied oxazolone-induced chronic skin inflammation hairless SKH1 mouse model assessed as decrease in skin lesions applied topically for 10 days in combination with oxazolone; type: functional, organism-based
[12] = tested on: Hepatocyte; assay: as §1; type: ADME, cell-based; conditions: hepatocytes, 1 µM

Compound	IC50 [1]	solubility at 24 h [2]	other results
CC(=O)N1CC(CC(=O)NO)(N(C)S(=O)(=O)c2ccc(OCc3cc(C)nc4ccccc34)cc2)C1	590 nM		
CC(=O)N1CC2(C1)CC(CC(=O)NO)(NS(=O)(=O)c1ccc(OCc3cc(C)nc4ccccc34)cc1)C2	4 nM	3000 µM (≈ 1620 µg/mL)	
CC#CCOc1ccc(S(=O)(=O)NC2(CC(=O)NO)CN(C(C)=O)C2)cc1	1300 nM	1800 µM (≈ 712 µg/mL)	
CC(=O)N1CC(CC(=O)NO)(NS(=O)(=O)c2ccc(OCc3cc(C)nc4ccccc34)cc2)C1	8 nM	800 µM (≈ 399 µg/mL)	hepatocyte CLint at 1 µM [3]: < 5 µL/min/1e6 cells; half-life at 1 µM [4]: > 24 h; selectivity ratio [5]: 1; solubility at 24 h [6]: < 0.5 µM; remaining at 0.1 mg/ml [7]: 98%; Activity [8]: Non-Toxic; Activity [9]: Non-Toxic
CCCCN1CC(CC(=O)NO)(NS(=O)(=O)c2ccc(OCc3cc(C)nc4ccccc34)cc2)C1	12 nM	4900 µM (≈ 2510 µg/mL)	solubility at 24 h [6]: 70 µM (≈ 35.9 µg/mL); remaining at 730.5 h, 0.1 mg/ml [10]: 72%
CCCCC(=O)O[C@]1(C(=O)CO)[C@@H](C)C[C@H]2[C@@H]3CCC4=CC(=O)C=C[C@]4(C)[C@@]3(F)[C@@H](O)C[C@@]21C			Activity [11]: Active
Cc1cc(COc2ccc(S(=O)(=O)NC3(C(=O)NO)CN(C(=O)C(C)C)C3)cc2)c2ccccc2n1	16 nM	17000 µM (≈ 8710 µg/mL)	hepatocyte CLint at 1 µM [3]: < 5 µL/min/1e6 cells; Activity [8]: Non-Toxic; Activity [9]: Non-Toxic
Cc1cc(COc2ccc(S(=O)(=O)N(C)C3(C(=O)NO)CN(CCC(F)(F)F)C3)cc2)c2ccccc2n1			remaining at 730.5 h, 0.1 mg/ml [10]: 98%
CC(=O)N1CC(CC(=O)NO)(NS(=O)(=O)c2ccc(OCc3cc(C)nc4c(F)cccc34)cc2)C1	61 nM		
COCCN(C1(C(=O)NO)CN(C(=O)C(C)C)C1)S(=O)(=O)c1ccc(OCc2cc(C)nc3ccccc23)cc1	31 nM	8900 µM (≈ 5080 µg/mL)	hepatocyte CLint at 1 µM [3]: 18 µL/min/1e6 cells
Cc1cc(COc2ccc(S(=O)(=O)NC3(C(=O)NO)CN(C(=O)CC(C)C)C3)cc2)c2ccccc2n1	33 nM	5000 µM (≈ 2630 µg/mL)	hepatocyte CLint at 1 µM [3]: 6 µL/min/1e6 cells
Cc1cc(COc2ccc(S(=O)(=O)NC3(CC(=O)NO)CCC3)cc2)c2ccccc2n1	13 nM		
Cc1cc(COc2ccc(S(=O)(=O)NC3(CC(=O)NO)CCN(C(=O)CC(C)C)C3)cc2)c2ccccc2n1 (stereo in doubt; 18h)	42 nM		solubility [2]: 7900 µM (≈ 4380 µg/mL)
Cc1cc(COc2ccc(S(=O)(=O)NC3(CC(=O)NO)CN(C(=O)CC(C)C)C3)cc2)c2ccccc2n1	6 nM	900 µM (≈ 487 µg/mL)	hepatocyte CLint at 1 µM [3]: 13 µL/min/1e6 cells
Cc1cc(COc2ccc(S(=O)(=O)NC3(CC(=O)NO)CN(CCC(F)(F)F)C3)cc2)c2ccccc2n1	10 nM	3400 µM (≈ 1880 µg/mL)	remaining at 730.5 h, 0.1 mg/ml [10]: 88%
Cc1cc(COc2ccc(S(=O)(=O)NC3(CC(=O)NO)CCN(C(=O)CC(C)C)C3)cc2)c2ccccc2n1 (stereo in doubt; 18g)	8 nM		solubility [2]: 17000 µM (≈ 9430 µg/mL); Activity [8]: Toxic; Activity [9]: Toxic
Cc1cc(COc2ccc(S(=O)(=O)NC3(C(=O)NO)CCCC3)cc2)c2ccccc2n1	68 nM	200 µM (≈ 91.1 µg/mL)	
Cc1cc(COc2ccc(S(=O)(=O)NC3(C(=O)NO)CN(CCC(F)(F)F)C3)cc2)c2ccccc2n1			remaining at 730.5 h, 0.1 mg/ml [10]: 58%
CC(=O)N1CCC(NS(=O)(=O)c2ccc(OCc3cc(C)nc4ccccc34)cc2)(C(=O)NO)CC1	61 nM	59000 µM (≈ 30200 µg/mL)	Activity [8]: Toxic; Activity [9]: Toxic
Cc1cc(COc2ccc(S(=O)(=O)NC3(CC(=O)NO)CN(C(=O)OC(C)C)C3)cc2)c2ccccc2n1	6 nM	1100 µM (≈ 597 µg/mL)	solubility at 24 h [6]: 80 µM (≈ 43.4 µg/mL)

Compound	IC50 [1]	solubility at 24 h [2]	other results
CC(=O)N1CC(CC(=O)NO)(NS(=O)(=O)c2ccc(OCc3cc(C)nc4ccccc34)cc2C)C1	> 10000 nM	900 µM (≈ 461 µg/mL)	
Cc1cc(COc2ccc(S(=O)(=O)NC3(CC(=O)NO)CN(C(=O)C(C)(C)N(C)C)C3)cc2)c2ccccc2n1	4.6 nM	11000 µM (≈ 6270 µg/mL)	Stability [12]: Unstable; Activity [8]: Non-Toxic; Activity [9]: Non-Toxic
Cc1cc(COc2ccc(S(=O)(=O)N(C(C)C)C3(C(=O)NO)CN(C(=O)C(C)C)C3)cc2)c2ccccc2n1	790 nM	2200 µM (≈ 1220 µg/mL)	hepatocyte CLint at 1 µM [3]: 17 µL/min/1e6 cells
Cc1cc(COc2ccc(S(=O)(=O)NC3(C(=O)NO)CCC3)cc2)c2ccccc2n1	30 nM		Activity [8]: Toxic; Activity [9]: Toxic
Cc1cc(COc2ccc(S(=O)(=O)NCCC(=O)NO)cc2)c2ccccc2n1	2300 nM	4100 µM (≈ 1700 µg/mL)	
CCc1cc(COc2ccc(S(=O)(=O)NC3(CC(=O)NO)CN(C(C)=O)C3)cc2)c2ccccc2n1	27 nM	400 µM (≈ 205 µg/mL)	
CC(=O)N1CC(CC(=O)NO)(NS(=O)(=O)c2ccc(OCc3cc(C)nc4ccccc34)c(C)c2)C1	> 10000 nM	400 µM (≈ 205 µg/mL)	
CC(=O)N1CC(CC(=O)NO)(NS(=O)(=O)c2ccc(Cc3cc(C)nc4ccccc34)cc2)C1	240 nM	1900 µM (≈ 917 µg/mL)	
CC(=O)N1CC2(C1)CC(NS(=O)(=O)c1ccc(OCc3cc(C)nc4ccccc34)cc1)(C(=O)NO)C2	36 nM	17000 µM (≈ 8920 µg/mL)	hepatocyte CLint at 1 µM [3]: < 5 µL/min/1e6 cells; half-life at 1 µM [4]: > 24 h; solubility at 24 h [6]: 84 µM (≈ 44.1 µg/mL); remaining at 0.1 mg/ml [7]: 95%; Activity [8]: Toxic; Activity [9]: Toxic
CC(=O)N1CC(CC(=O)NO)(NS(=O)(=O)c2ccc(SCc3cc(C)nc4ccccc34)cc2)C1	720 nM	1000 µM (≈ 515 µg/mL)	
Cc1cc(COc2ccc(S(=O)(=O)NC3(C(=O)NO)CCCCC3)cc2)c2ccccc2n1	100 nM	11000 µM (≈ 5170 µg/mL)	Activity [8]: Non-Toxic; Activity [9]: Non-Toxic
Cc1cc(COc2ccc(S(=O)(=O)NC(C)(C)CC(=O)NO)cc2)c2ccccc2n1	43 nM	1600 µM (≈ 710 µg/mL)	
Cc1cc(COc2ccc(S(=O)(=O)NC3(C(=O)NO)CC3)cc2)c2ccccc2n1	210 nM	46000 µM (≈ 19700 µg/mL)	Activity [8]: Toxic; Activity [9]: Toxic
Cc1cc(COc2ccc(S(=O)(=O)NC3(CC(=O)NO)CN(C(=O)N4CCCCC4)C3)cc2)c2ccccc2n1	5 nM	500 µM (≈ 284 µg/mL)	solubility at 24 h [6]: 80 µM (≈ 45.4 µg/mL)
Cc1cc(COc2ccc(S(=O)(=O)NCC(=O)NO)cc2)c2ccccc2n1	82 nM	100 µM (≈ 40.1 µg/mL)	
CCN(C1(C(=O)NO)CN(C(=O)C(C)C)C1)S(=O)(=O)c1ccc(OCc2cc(C)nc3ccccc23)cc1	37 nM	44000 µM (≈ 23800 µg/mL)	hepatocyte CLint at 1 µM [3]: 11 µL/min/1e6 cells
Cc1cc(COc2ccc(S(=O)(=O)NC3(CC(=O)NO)CC3)cc2)c2ccccc2n1	84 nM	1600 µM (≈ 706 µg/mL)	
Cc1cc(COc2ccc(S(=O)(=O)NC3(CC(=O)NO)COC3)cc2)c2ccccc2n1	10 nM	200 µM (≈ 91.5 µg/mL)	
Cc1cc(COc2ccc(S(=O)(=O)NC[C@@H](C(=O)NO)N3CCCCC3)cc2)c2ccccc2n1		8000 µM (≈ 3990 µg/mL)	hepatocyte CLint at 1 µM [3]: 24 µL/min/1e6 cells; half-life at 1 µM [4]: > 24 h; solubility at 24 h [6]: < 1 µM; remaining at 0.1 mg/ml [7]: 89%; Activity [8]: Non-Toxic; Activity [9]: Non-Toxic
Cc1cc(COc2ccc(S(=O)(=O)NC(C)(C)C(=O)NO)cc2)c2ccccc2n1	140 nM		
